The values that follow come from paper PMC11233931, “Remodeling tumor‐associated macrophage for anti‐cancer effects by rational design of irreversible inhibition of mitogen‐activated protein kinase‐activated protein kinase 2” (MedComm, 2024).

Broadly, the inhibition is the drop in the measured response relative to a control, in per cent.

Assay in all cases: Eurofins kinase selectivity profile against 380 other human recombinant kinases (Table S2)
Holding throughout (type): biochemical

Experiment [1] has as its target T1, 380 human recombinant protein kinases (Homo sapiens, UniProt P22694).
T1 construct: purchased Eurofins (Celle Lévescault)
The settings on record: PKAcβ(h), read-out: Inhibition rate. The essentials: (§1)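 The inhibitor was sent to a contract lab and screened at various concentrations against 380 human recombinant protein kinases. This served as a counter-screen for MK2 specificity.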

In experiment [2] the target is T2, 380 human recombinant protein kinases (Homo sapiens, UniProt P42680).
T2 construct: purchased Eurofins (Celle Lévescault)
T2 sequence (P42680 1-631): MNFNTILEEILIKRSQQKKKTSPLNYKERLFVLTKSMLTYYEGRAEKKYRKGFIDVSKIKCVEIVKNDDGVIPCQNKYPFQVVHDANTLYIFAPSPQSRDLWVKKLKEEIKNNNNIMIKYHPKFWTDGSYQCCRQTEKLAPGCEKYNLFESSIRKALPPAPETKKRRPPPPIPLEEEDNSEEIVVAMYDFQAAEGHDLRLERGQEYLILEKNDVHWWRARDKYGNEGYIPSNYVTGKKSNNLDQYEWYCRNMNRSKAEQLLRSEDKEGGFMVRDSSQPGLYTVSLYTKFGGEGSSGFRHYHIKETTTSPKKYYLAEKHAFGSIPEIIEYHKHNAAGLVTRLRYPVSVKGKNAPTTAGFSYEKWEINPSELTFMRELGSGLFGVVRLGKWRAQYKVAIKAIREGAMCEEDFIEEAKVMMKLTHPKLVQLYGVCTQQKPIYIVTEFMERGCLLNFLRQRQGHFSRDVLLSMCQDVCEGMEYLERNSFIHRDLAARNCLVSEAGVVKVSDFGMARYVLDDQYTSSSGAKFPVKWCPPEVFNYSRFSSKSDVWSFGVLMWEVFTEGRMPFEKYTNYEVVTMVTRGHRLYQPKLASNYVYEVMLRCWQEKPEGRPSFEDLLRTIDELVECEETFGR
The settings on record: Tec(h) activated, read-out: Inhibition rate (%). The procedure, abridged:
as §1

Experiment [3] concerns the target T3, 380 human recombinant protein kinases (Homo sapiens, UniProt P48730).
T3 construct: purchased Eurofins (Celle Lévescault)
The settings on record: CK1δ(h), read-out: Inhibition rate. The procedure, abridged: as §1

Experiment [4] has as its target T4, 380 human recombinant protein kinases (Homo sapiens, UniProt Q8TDC3).
T4 construct: purchased Eurofins (Celle Lévescault)
T4 sequence (Q8TDC3 1-778): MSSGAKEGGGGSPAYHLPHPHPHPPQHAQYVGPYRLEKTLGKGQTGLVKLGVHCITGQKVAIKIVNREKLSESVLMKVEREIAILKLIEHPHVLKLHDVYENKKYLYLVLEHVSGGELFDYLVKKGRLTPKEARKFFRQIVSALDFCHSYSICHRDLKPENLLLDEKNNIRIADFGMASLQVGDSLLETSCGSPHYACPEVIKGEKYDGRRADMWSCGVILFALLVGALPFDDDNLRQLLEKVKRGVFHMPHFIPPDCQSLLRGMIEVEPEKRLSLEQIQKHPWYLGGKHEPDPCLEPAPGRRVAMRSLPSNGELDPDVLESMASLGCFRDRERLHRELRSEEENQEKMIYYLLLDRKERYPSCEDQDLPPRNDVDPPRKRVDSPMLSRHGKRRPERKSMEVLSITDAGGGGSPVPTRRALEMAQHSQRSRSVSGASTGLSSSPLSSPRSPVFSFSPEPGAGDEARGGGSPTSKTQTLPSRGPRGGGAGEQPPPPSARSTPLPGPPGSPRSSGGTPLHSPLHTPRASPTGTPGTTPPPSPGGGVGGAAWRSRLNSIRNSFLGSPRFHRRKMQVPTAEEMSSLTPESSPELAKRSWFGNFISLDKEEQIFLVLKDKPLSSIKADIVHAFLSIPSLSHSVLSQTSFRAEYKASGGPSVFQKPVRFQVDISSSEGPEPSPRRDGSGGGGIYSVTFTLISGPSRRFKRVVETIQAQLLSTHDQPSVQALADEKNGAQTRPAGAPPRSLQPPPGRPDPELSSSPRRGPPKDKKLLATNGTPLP
The settings on record: BrSK1(h), read-out: Inhibition rate. The essentials: as §1

Experiment [5] addresses T5, 380 human recombinant protein kinases (Homo sapiens, UniProt Q9H3Y6).
T5 construct: purchased Eurofins (Celle Lévescault)
The settings on record: SRMS(h), read-out: Inhibition rate (%). The essentials:
as §1

In experiment [6] the target is T6, 380 human recombinant protein kinases (Homo sapiens, UniProt Q9UPE1).
T6 construct: purchased Eurofins (Celle Lévescault)
T6 sequence (Q9UPE1 whole entry): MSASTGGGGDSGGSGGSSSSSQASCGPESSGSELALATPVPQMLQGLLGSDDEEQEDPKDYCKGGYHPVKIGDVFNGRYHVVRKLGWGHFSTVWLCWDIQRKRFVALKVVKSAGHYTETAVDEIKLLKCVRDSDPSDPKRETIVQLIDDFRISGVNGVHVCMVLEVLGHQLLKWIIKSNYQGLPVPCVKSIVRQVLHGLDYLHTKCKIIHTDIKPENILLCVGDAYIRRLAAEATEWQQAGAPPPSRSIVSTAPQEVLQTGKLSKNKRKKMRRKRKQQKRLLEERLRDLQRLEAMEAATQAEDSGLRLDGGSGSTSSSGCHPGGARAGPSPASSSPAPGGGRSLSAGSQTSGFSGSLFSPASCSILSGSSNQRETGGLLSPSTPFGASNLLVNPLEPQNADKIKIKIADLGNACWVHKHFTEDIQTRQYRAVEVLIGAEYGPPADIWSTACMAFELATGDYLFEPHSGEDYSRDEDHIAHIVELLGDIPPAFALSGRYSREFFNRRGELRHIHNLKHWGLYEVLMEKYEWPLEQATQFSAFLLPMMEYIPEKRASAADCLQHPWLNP
The settings on record: MSSK1(h), read-out: Inhibition rate. The essentials: as §1

T3 sequence (P48730 whole entry): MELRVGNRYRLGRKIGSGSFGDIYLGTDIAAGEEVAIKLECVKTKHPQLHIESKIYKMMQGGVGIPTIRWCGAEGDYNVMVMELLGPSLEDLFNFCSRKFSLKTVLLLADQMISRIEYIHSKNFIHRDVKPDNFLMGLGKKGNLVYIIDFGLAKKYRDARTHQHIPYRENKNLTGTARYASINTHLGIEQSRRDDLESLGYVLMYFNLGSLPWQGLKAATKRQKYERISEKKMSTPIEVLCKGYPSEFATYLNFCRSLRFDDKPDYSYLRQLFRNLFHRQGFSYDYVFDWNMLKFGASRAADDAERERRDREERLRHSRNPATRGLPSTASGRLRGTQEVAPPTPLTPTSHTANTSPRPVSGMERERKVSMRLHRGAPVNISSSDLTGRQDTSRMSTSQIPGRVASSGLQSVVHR
T5 sequence (Q9H3Y6 whole entry): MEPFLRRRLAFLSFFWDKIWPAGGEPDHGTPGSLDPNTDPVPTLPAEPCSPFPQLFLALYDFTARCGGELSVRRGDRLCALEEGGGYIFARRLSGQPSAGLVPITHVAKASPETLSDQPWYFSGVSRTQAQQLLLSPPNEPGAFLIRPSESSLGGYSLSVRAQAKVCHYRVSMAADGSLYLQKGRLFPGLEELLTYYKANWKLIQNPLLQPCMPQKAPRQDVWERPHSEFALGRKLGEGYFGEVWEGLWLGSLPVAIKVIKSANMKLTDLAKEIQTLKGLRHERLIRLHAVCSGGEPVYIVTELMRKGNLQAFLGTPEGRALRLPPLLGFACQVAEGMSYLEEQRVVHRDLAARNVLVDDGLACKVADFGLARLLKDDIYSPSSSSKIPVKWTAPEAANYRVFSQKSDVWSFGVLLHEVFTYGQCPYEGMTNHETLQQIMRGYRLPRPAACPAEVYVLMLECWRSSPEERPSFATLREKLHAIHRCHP

Regarding `C=CC(=O)Nc1cc(-c2cc(-c3cc4c([nH]3)CCNC4=O)ccn2)ccc1OC(F)(F)F` [compound 11], the inhibition at 0.01 µM in experiment [1] (10 nM) is -11%; in experiment [2] (10 nM) it was 8%; in experiment [3] (10 nM) it was 3%; in experiment [4] (10 nM) it was -7%; in experiment [5] (10 nM), 1%; in experiment [6] (10 nM) it was -7%. Further, the inhibition at 0.1 µM in experiment [1] (100 nM) was -4%; in experiment [2] (100 nM) it was 11%; in experiment [3] (100 nM), 26%; in experiment [4] (100 nM), -3%; in experiment [5] (100 nM), 10%; in experiment [6] (100 nM) it was -4%. Further, the inhibition at 1 µM in experiment [1] (1000 nM) was 5%; in experiment [2] (1000 nM) it was 17%; in experiment [3] (1000 nM), 74%; in experiment [4] (1000 nM) it was 17%; in experiment [5] (1000 nM), 7%; in experiment [6] (1000 nM) it was 0%.
